Data set [1] concerns female ob/ob mice. Kind of data set: Effect of concomitant use with metformin hydrochloride on hypoglycemic activity. As to conditions: relative to control. In kind it is in vivo. The method, then:
(§1) To 10-week-old female ob/ob mice grouped according to glucose level were orally administered a 0.5% methyl cellulose suspension of the test compound {note: Example 4-2 (1 mg/kg)} (test compound-administered group), a 0.5% methyl cellulose suspension of metformin chloride (30 mg/kg) (metformin-administered group), simultaneously both a 0.5% methyl cellulose suspension of the test compound and a 0.5% methyl cellulose suspension (metformin chloride 30 mg/kg) (test compound and metformin concomitant use group), or a 0.5% methyl cellulose solution alone (control group). The ob/ob mice were fasted for 3 hours before administration.
Blood was drawn under fasting condition, which condition was started simultaneously with the administration by means of removing the feed. The blood was drawn under anesthesia from the orbital vein 3 and 5 hours after the administration. The blood thus taken was centrifuged and the glucose level was measured from the obtained plasma by the hexokinase method (glucose kit). For evaluation, the percentage (%) of decrease in the glucose level of each group other than the control group relative to the control group is shown.

Data set [2] relates to female ob/ob mice. Kind of data set: Effect of concomitant use with voglibose on hypoglycemic activity (sucrose loading). As to conditions: after sucrose loading 2 g/kg, relative to control. Type of data set: in vivo. As to the method: as §1, with “9-week-old” for “10-week-old”, “voglibose (0.3” for “metformin chloride (30”, “(voglibose-administered” for “(metformin-administered”, “(voglibose 0.3” for “(metformin chloride 30”, “voglibose” for “metformin”, “One hour later, sucrose (2 g/5 mL/kg) was loaded.” for “The ob/ob mice were fasted for 3 hours before administration.”
Blood was drawn under fasting condition, which condition was started simultaneously with the loading by means of removing the feed. The blood was drawn under anesthesia from the orbital vein 1 and 2 hours after the sucrose loading. The blood thus taken was centrifuged and the glucose level was measured from the obtained plasma by the hexokinase method (glucose kit). For evaluation, the percentage (%) of decrease in the glucose level of each group other than the control group relative to the control group is shown.

Data set [3] concerns male db/db mice. Kind of data set: Effect of concomitant use with nateglinide on hypoglycemic activity. As to conditions: relative to control. In kind it is in vivo. As to the method: To 10-week-old male db/db mice grouped according to glucose level were orally administered a 0.5% methyl cellulose suspension of the test compound {note: Example 4-5 (5 mg/kg)} (test compound-administered group), a 0.5% methyl cellulose suspension of nateglinide (30 mg/kg) (nateglinide-administered group), simultaneously both a 0.5% methyl cellulose suspension of the test compound and a 0.5% methyl cellulose suspension (nateglinide 30 mg/kg) (test compound and nateglinide concomitant use group), or a 0.5% methyl cellulose solution alone (control group).
Blood was drawn under fasting condition, which condition was started simultaneously with the administration by means of removing the feed. The blood was drawn under anesthesia from the orbital vein 2 hours after the administration. The blood thus taken was centrifuged and the glucose level was measured from the obtained plasma by the hexokinase method (glucose measurement kit). For evaluation, the percentage (%) of decrease in the glucose level of each group other than the control group relative to the control group is shown.

Data set [4] deals with male db/db mice. Nature of the data set: Effect of concomitant use with pioglitazone hydrochloride on hypoglycemic activity. Type of data set: in vivo. The note with it: relative to control; for blood glucose decreasing rate (%) Day 3: 3 hours after administration. As to the method: To 8-week-old male db/db mice grouped according to full feed glucose level were orally administered a 0.5% methyl cellulose suspension of the test compound {note: Example 4-5 (10 mg/kg)} (test compound-administered group), a 0.5% methyl cellulose suspension of Pioglitazone hydrochloride (3 mg/kg) (Pioglitazone-administered group), simultaneously both a 0.5% methyl cellulose suspension of the test compound and a 0.5% methyl cellulose suspension (Pioglitazone hydrochloride 3 mg/kg) (test compound and Pioglitazone concomitant use group), or a 0.5% methyl cellulose solution alone (control group), once a day for 3 days.
Blood was drawn under fasting condition, which condition was started simultaneously with the administration by means of removing the feed. The blood was drawn under anesthesia from the orbital vein on day 1 of administration and 3 hours after the administration on day 3. The blood thus taken was centrifuged and the glucose level was measured from the obtained plasma by the hexokinase method (glucose kit). For evaluation, the percentage (%) of decrease in the glucose level of each group other than the control group relative to the control group is shown.

In data set [5] the test system is female ob/ob mice. Kind of data set: Effect of concomitant use with glibenclamide on hypoglycemic activity. The note with it: relative to control. Type of data set: in vivo. The method, then:
To 10-week-old female ob/ob mice grouped according to glucose level were orally administered a 0.5% methyl cellulose suspension of the test compound {note: Example 4-2 (1 mg/kg)} (test compound-administered group), a 0.5% methyl cellulose suspension of glibenclamide (3 mg/kg) (glibenclamide-administered group), simultaneously both a 0.5% methyl cellulose suspension of the test compound and a 0.5% methyl cellulose suspension (glibenclamide 3 mg/kg) (test compound and glibenclamide concomitant use group), or a 0.5% methyl cellulose solution alone (control group).
Blood was drawn under fasting condition, which condition was started simultaneously with the administration by means of removing the feed. […] The blood thus taken was centrifuged and the glucose level was measured from the obtained plasma by the hexokinase method (glucose kit). For evaluation, the percentage (%) of decrease in the glucose level of each group other than the control group relative to the control group is shown.

Data set [6] relates to male db/db mice. Nature of the data set: Effect of concomitant use with tolbutamide on hypoglycemic activity. Type of data set: in vivo. The note with it: relative to control. As to the method: To 10-week-old male db/db mice grouped according to glucose level were orally administered a 0.5% methyl cellulose suspension of the test compound {note: Example 4-5 (5 mg/kg)} (test compound-administered group), a 0.5% methyl cellulose suspension of tolbutamide (30 mg/kg) (tolbutamide-administered group), simultaneously both a 0.5% methyl cellulose suspension of the test compound and a 0.5% methyl cellulose suspension (tolbutamide 30 mg/kg) (test compound and tolbutamide concomitant use group), or a 0.5% methyl cellulose solution alone (control group).
Blood was drawn under fasting condition, which condition was started simultaneously with the administration by means of removing the feed. The blood was drawn under anesthesia from the orbital vein 5 hours after the administration. The blood thus taken was centrifuged and the glucose level was measured from the obtained plasma by the hexokinase method (glucose measurement kit). For evaluation, the percentage (%) of decrease in the glucose level of each group other than the control group relative to the control group is shown.

Another data set has as its system male SD rats. Nature of the data set: Effect of concomitant use with insulin on hypoglycemic activity. In kind it is in vivo. As to conditions: 1 hour after vs before insulin. The method, then: For drawing blood, the animals were fasted after insulin administration. The blood thus taken was centrifuged and the glucose level was measured from the obtained plasma by the hexokinase method (glucose measurement kit). For evaluation, the percentage (%) of decrease in the glucose level of the test compound and insulin concomitant use group and insulin administration group one hour later relative to before insulin administration is shown.

[7] abbreviates: metformin chloride 30 mg/kg oral alone, ob/ob mice.
Setting [8] is: Pioglitazone hydrochloride 3 mg/kg oral once a day alone.
The mark [9] stands for this setting: test compound 1 mg/kg + glibenclamide 3 mg/kg oral.
[10] abbreviates: test compound 1 mg/kg oral alone.
Setting [11] is: test compound 1 mg/kg + metformin chloride 30 mg/kg oral, ob/ob mice.
[12] abbreviates: test compound 1 mg/kg oral alone, ob/ob mice fasted 3 hours before administration.
Setting [13] is: test compound 1 mg/kg + voglibose 0.3 mg/kg oral.
Setting [14] is: test compound 5 mg/kg oral alone.
The mark [15] stands for this setting: test compound 10 mg/kg + Pioglitazone hydrochloride 3 mg/kg oral once a day.
Setting [16] is: test compound 10 mg/kg oral once a day alone.

SMILES strings stand for the structures. Structures can show the parent of a compound that is named as a salt.

For the molecule `CN(C)C(=N)N=C(N)N` [Metformin, metformin hydrochloride, reference compound], in the data set with female ob/ob mice [1] (setting [7]), the “blood glucose decreasing rate (%) 3 hours later” value worked out at 17% and the “blood glucose decreasing rate (%) 5 hours later” value was determined as 39%.

Turning to `OCC(CO)N[C@H]1C[C@](O)(CO)[C@@H](O)[C@H](O)[C@H]1O` [Voglibose, voglibose, reference compound], in the data set with female ob/ob mice [2] (voglibose 0.3 mg/kg oral alone), the “blood glucose decreasing rate (%) 1 hour later” value came out at 35% and the “blood glucose decreasing rate (%) 2 hours later” value worked out at 38%.

For the molecule `CC(C)[C@H]1CC[C@H](C(=O)N[C@H](Cc2ccccc2)C(=O)O)CC1` [Nateglinide, nateglinide, reference compound], the “blood glucose decreasing rate (%) 2 hours later” value in the data set on male db/db mice [3] (nateglinide 30 mg/kg oral alone) was 5%.

For `CCc1ccc(CCOc2ccc(CC3SC(=O)NC3=O)cc2)nc1` (stereo not shown) [Pioglitazone, pioglitazone hydrochloride, reference compound], in the data set on male db/db mice [4] (setting [8]), the “blood glucose decreasing rate (%) Day 3” value is 44% and the “blood glucose decreasing rate (%) Day of start of administration” value was 11%.

As for `CCCC(CCC)c1ccc(OCc2ccc(-c3csc(COc4cncc(C(=O)O)c4)c3)cc2)cc1` [Example 4-2, 5-(4-{4-[4-(1-Propylbutyl)phenoxymethyl]phenyl}thiophen-2-ylmethoxy)nicotinic acid], the “blood glucose decreasing rate (%) 3 hours later” value with female ob/ob mice [5] (setting [9]) turned out to be 64%; with female ob/ob mice [5] (setting [10]), 48%; in the data set on female ob/ob mice [1] (setting [11]), 40%; with female ob/ob mice [1] (setting [12]), 19%. Moreover, the “blood glucose decreasing rate (%) 15 hours later” value with female ob/ob mice [5] (setting [9]) is 60%; with female ob/ob mice [5] (setting [10]) it was 20%. Besides, the “blood glucose decreasing rate (%) 5 hours later” value with female ob/ob mice [1] (setting [11]) is on record as 51%; in the data set on female ob/ob mice [1] (setting [12]), 20%. Besides, the “blood glucose decreasing rate (%) 1 hour later” value is 49% with female ob/ob mice [2] (setting [13]) and 32% in the data set on female ob/ob mice [2] (setting [10]). Further, the “blood glucose decreasing rate (%) 2 hours later” value is recorded as 54% in the data set with female ob/ob mice [2] (setting [13]) and 40% in the data set with female ob/ob mice [2] (setting [10]).

Turning to `CCCCNC(=O)NS(=O)(=O)c1ccc(C)cc1` [Tolbutamide, tolbutamide, reference compound], the “blood glucose decreasing rate (%) 5 hours later” value in the data set with male db/db mice [6] (tolbutamide 30 mg/kg oral alone) is reported as 26%.

In the case of `CCCC(CCC)c1ccc(CN(C)c2ccc(-c3csc(CN(CC(=O)[O-])Cc4ccccc4)n3)cc2)cc1.[Na+]` [Example 3-40], the “blood glucose decreasing rate (%) Day of start of administration” value in the data set on male SD rats (test compound 30 mg/kg oral once a day + insulin 0.6 U/kg s.c. 3 hours later) stood at 43%. Further, the “blood glucose decreasing rate (%) Day 8” value in the data set on male SD rats (test compound 30 mg/kg oral once a day for 8 days + insulin 0.6 U/kg s.c.) is 36%.

In the case of `CCCC(CCC)c1ccc(OCc2ccc(-c3ccc(COc4cncc(C(=O)O)c4)s3)cc2)cc1` [Example 4-5], the melting point lay within 153 to 155 °C. The “blood glucose decreasing rate (%) 5 hours later” value in the data set with male db/db mice [6] (test compound 5 mg/kg + tolbutamide 30 mg/kg oral) is 30%. In addition, the “blood glucose decreasing rate (%) 5 hours later” value in the data set with male db/db mice [6] (setting [14]) was found to be 26%. Besides, the “blood glucose decreasing rate (%) 2 hours later” value in the data set on male db/db mice [3] (test compound 5 mg/kg + nateglinide 30 mg/kg oral) worked out at 19%. Moreover, the “blood glucose decreasing rate (%) 2 hours later” value in the data set on male db/db mice [3] (setting [14]) is reported as 11%. Moreover, in the data set with male db/db mice [4] (setting [15]), the “blood glucose decreasing rate (%) Day 3” value is recorded as 48% and the “blood glucose decreasing rate (%) Day of start of administration” value came out at 30%. In the data set with male db/db mice [4] (setting [16]), the “blood glucose decreasing rate (%) Day 3” value was determined as 32% and the “blood glucose decreasing rate (%) Day of start of administration” value is given as 24%.

What is called melting point is the temperature, or range, at which the solid turns liquid.

These data come from US20060122181A1, “Heteroaromatic pentacyclic compound and medicinal use thereof” (Japan Tobacco Inc., priority 2003, published 2006).
